Measurements reported in patent EP4603105A1, “PHARMACEUTICAL COMPOSITION CONTAINING CYCLIC COMPOUND HAVING SELECTIVE KRAS INHIBITORY EFFECT AGAINST HRAS AND NRAS” (CHUGAI SEIYAKU KABUSHIKI KAISHA, priority 2022, dated 2024).
Where a SMILES comes first, the peptide text is derived from it. Bridges are numbered along the chain shown (N, C = ends). [ ]: non-standard residue; d: D form. The star is where a group is joined. hPhe(3-Cl-4-CF3) = N[C@@H](CCc1ccc(C(F)(F)F)c(Cl)c1)C(=O)O; NPrPhe(4-CF3) = CCCN[C@@H](Cc1ccc(C(F)(F)F)cc1)C(=O)O; NEtPhe(4-Me) = CCN[C@@H](Cc1ccc(C)cc1)C(=O)O; Morpholine(3S-CO) = O=C(O)[C@@H]1COCCN1; NMeGly(cPent) = CN[C@H](C(=O)O)C1CCCC1; Pro(4,4-F2) = O=C(O)[C@@H]1CC(F)(F)CN1; Gly(cPent) = N[C@H](C(=O)O)C1CCCC1; NMeD = CN[C@@H](CC(=O)O)C(=O)O; NMeL = CN[C@@H](CC(C)C)C(=O)O; Morpholide = C1CN(*)CCO1; NMeA = CN[C@@H](C)C(=O)O; Ac5c = NC1(C(=O)O)CCCC1; Aze = O=C(O)[C@@H]1CCN1; Ac4c = NC1(C(=O)O)CCC1; NEtG = CCNCC(=O)O; Sar = CNCC(=O)O

Tests used:
HRAS wild-type protein = HRAS wild-type protein (Homo sapiens, UniProt P01112); experiment: Binding to HRAS by surface plasmon resonance (SPR), KD and KD ratio to KRAS
Sequence of HRAS wild-type protein (P01112 whole entry): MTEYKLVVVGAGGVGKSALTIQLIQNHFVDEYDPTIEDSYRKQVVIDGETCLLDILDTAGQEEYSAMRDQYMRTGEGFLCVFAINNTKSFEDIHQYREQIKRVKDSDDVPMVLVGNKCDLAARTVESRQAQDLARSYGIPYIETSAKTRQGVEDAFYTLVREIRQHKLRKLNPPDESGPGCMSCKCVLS
Summary of the method: (§1)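 Recombinant RAS proteins bearing a biotinylated Avi tag and loaded with GDP served as the captured ligand, recaptured fresh every cycle. Binding responses were referenced to an uncoated surface and a buffer-only blank cycle. Dissociation constants were obtained by 1:1 model fitting at 30°C.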

[1] = tested on: human lung cancer strain NCI-H441; assay type: cell-based
Summary of the method: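 Signal came from […] measured per well once the reagent was added. Beforehand, cells were cultured at 37°C and 5% carbon dioxide on a compound series serially diluted in dimethyl sulfoxide.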

[2] = target: GDP-bound NRAS wild-type protein (Homo sapiens, UniProt P01111); experiment: Binding to NRAS by surface plasmon resonance (SPR), KD and KD ratio to KRAS
Sequence of GDP-bound NRAS wild-type protein (P01111 whole entry): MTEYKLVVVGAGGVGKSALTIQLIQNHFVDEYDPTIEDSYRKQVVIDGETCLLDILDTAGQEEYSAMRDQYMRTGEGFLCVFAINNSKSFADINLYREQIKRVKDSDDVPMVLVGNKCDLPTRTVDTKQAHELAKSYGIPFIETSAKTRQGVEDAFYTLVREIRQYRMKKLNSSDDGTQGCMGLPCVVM
Summary of the method: as §1

[3] = ratio of KD for HRAS wild-type protein to KD for KRAS
[4] = ratio of KD for GDP-bound NRAS wild-type protein to KD for KRAS
[5] = ratio of KD value for HRAS wild-type protein to KD value for KRAS (SPR)
[6] = ratio of KD value for GDP-bound NRAS wild-type protein to KD value for KRAS (SPR)
[7] = ratio of the KD value with respect to HRAS wild-type protein to the KD value with respect to KRAS
[8] = ratio of the KD value with respect to GDP-bound NRAS wild-type protein to the KD value with respect to KRAS

SMILES	HRAS /KRAS (HRAS wild-type protein; [3])	IC50 [1] [nM]	NRAS /KRAS [2, 4]	HRAS /KRAS (HRAS wild-type protein; [5])	NRAS /KRAS [2, 6]	HRAS /KRAS (HRAS wild-type protein; [7])	NRAS /KRAS [2, 8]
CC[C@H](C)[C@@H]1NC(=O)[C@H](CC(C)C)N(C)C(=O)C[C@@H](C(=O)N2CCOCC2)N(C)C(=O)[C@H](C2CCCC2)N(C)C(=O)C2(CCCC2)NC(=O)[C@@H]2CCCN2C(=O)[C@H](CCc2ccc(C(F)(F)F)c(Cl)c2)NC(=O)CN(CC)C(=O)[C@H](Cc2ccc(C)cc2)N(CC)C(=O)[C@@H]2CCN2C(=O)[C@H](C)N(C)C1=O [PP0006] ([NMeL]I[NMeA][Aze][NEtPhe(4-Me)][NEtG][hPhe(3-Cl-4-CF3)]P[Ac5c][NMeGly(cPent)][NMeD]-Morpholide; lactam N-11)	C (A compound having a KD ratio of 0.1 or more and less than 3 is denoted as C)	20.6	C (A compound having a KD ratio of 0.1 or more and less than 3 is denoted as C)	–	–	–	–
CCO[C@@H]1C[C@H]2C(=O)NC3(CC(C)(C)C3)C(=O)N(C)[C@@H](C3CCCC3)C(=O)N(C)[C@H](C(=O)N(C)C)CC(=O)N(C)[C@@H](CC(C)C)C(=O)N[C@@H]([C@@H](C)CC)C(=O)N(C)CC(=O)N(C)[C@H]3C/C=C\CCN(C3=O)[C@@H](Cc3ccc(C(F)(F)F)cc3)C(=O)N(C)CC(=O)N[C@@H](CCc3cc(F)c(Cl)c(F)c3)C(=O)N2C1 [PP1761]	–	5.2	–	A (a compound having 10 or more and less than 20 is denoted as A)	A (a compound having 10 or more and less than 20 is denoted as A)	–	–
CC[C@H](C)[C@@H]1NC(=O)[C@H](CC(F)(F)F)N(C)C(=O)C[C@@H](C(=O)N(C)C)N(C)C(=O)[C@H](C2CCCC2)N(C)C(=O)C2(CC(C)(C)C2)NC(=O)[C@@H]2CC(F)(F)CN2C(=O)[C@H](CCc2cc(F)c(C(F)(F)F)c(F)c2)NC(=O)CN(C)C(=O)[C@H](Cc2ccc(C(F)(F)F)cc2)N2CC/C=C\C[C@@H](C2=O)N(C)C(=O)CN(C)C1=O [PP1710]	–	4.1	–	B (a compound having 3 or more and less than 10 is denoted as B)	A (a compound having 10 or more and less than 20 is denoted as A)	–	–
CCO[C@@H]1C[C@H]2C(=O)NC3(CCC3)C(=O)N(C)[C@@H](C3CCCC3)C(=O)N(C)[C@H](C(=O)N(C)C)CC(=O)N(C)[C@@H](CC)C(=O)N[C@@H]([C@@H](C)CC)C(=O)N(C)CC(=O)N(C)[C@H]3CCCCCN(C3=O)[C@@H](Cc3ccc(C(F)(F)F)cc3)C(=O)N(C)CC(=O)N[C@@H](CCc3cc(Cl)c(C(F)(F)F)c(Cl)c3)C(=O)N2C1 [PP0989]	B (a compound having 3 or more and less than 10 is denoted as B)	135	B (a compound having 3 or more and less than 10 is denoted as B)	–	–	–	–
CCCN1C(=O)CN(C)C(=O)CN(CC)C(=O)[C@H]([C@@H](C)CC)NC(=O)[C@H](CC(C)C)N(C)C(=O)C[C@@H](C(=O)N(C)C)N(C)C(=O)[C@H](C2CCCC2)N(C)C(=O)C2(CCC2)NC(=O)[C@@H]2CC(F)(F)CN2C(=O)[C@H](CCc2ccc(C(F)(F)F)c(Cl)c2)NC(=O)CN(C)C(=O)[C@@H]1Cc1ccc(C(F)(F)F)cc1 [PP0426] ([NMeL]I[NEtG][Sar][NPrPhe(4-CF3)][Sar][hPhe(3-Cl-4-CF3)][Pro(4,4-F2)][Ac4c][NMeGly(cPent)][NMeD]-NMe2; lactam N-11)	–	4.8	–	–	–	C (A compound having a KD ratio of 0.1 or more and less than 3 is denoted as C)	C (A compound having a KD ratio of 0.1 or more and less than 3 is denoted as C)
CC[C@H](C)[C@@H]1NC(=O)[C@H](CC(F)(F)F)N(C)C(=O)C[C@@H](C(=O)N2CCOCC2)N(C)C(=O)[C@H](C2CCCC2)N(C)C(=O)C2(CCCC2)NC(=O)[C@@H]2CCCN2C(=O)[C@H](CCc2cc(F)c(C(F)(F)F)c(F)c2)NC(=O)CN(C)C(=O)[C@H](Cc2ccc(C(F)(F)F)cc2)N2CCCC[C@@H](C2=O)N(C)C(=O)CN(C)C1=O [PP0594]	–	2.5	–	–	–	B (a compound having 3 or more and less than 10 is denoted as B)	C (A compound having a KD ratio of 0.1 or more and less than 3 is denoted as C)
CC[C@H](C)[C@@H]1NC(=O)[C@H](CC(C)C)N(C)C(=O)C[C@@H](C(=O)N2CCOCC2)N(C)C(=O)[C@H](C2CCCC2)N(C)C(=O)C2(CCCC2)NC(=O)[C@@H]2CC(F)(F)CN2C(=O)[C@H](CCc2ccc(C(F)(F)F)c(Cl)c2)NC(=O)CN(C)C(=O)[C@H](Cc2ccc(F)cc2)N2CCCCC[C@@H](C2=O)N(C)C(=O)CN(C)C1=O [PP0966]	B (a compound having 3 or more and less than 10 is denoted as B)	34.6	B (a compound having 3 or more and less than 10 is denoted as B)	–	–	–	–
CCO[C@@H]1C[C@H]2C(=O)NC3(CCC3)C(=O)N(C)[C@@H](C(CC)CC)C(=O)N(C)[C@H](C(=O)N3CCCCC3)CC(=O)N(C)[C@H]3CCCCC/C=C/c4ccc(cc4)C[C@@H](C(=O)N(C)CC(=O)N[C@@H](CCc4ccc(Cl)c(Cl)c4)C(=O)N2C1)N1CC/C=C\C[C@@H](C1=O)N(C)C(=O)CN(C)C(=O)[C@H]([C@@H](C)CC)NC3=O [PP3051]	A (a compound having 10 or more and less than 20 is denoted as A)	42.1	AA (a compound having 20 or more is denoted as AA)	–	–	–	–
C=CC[C@H]1C(=O)N[C@@H]([C@@H](C)CC)C(=O)N(C)CC(=O)N(C)[C@H]2CCCCN(C2=O)[C@@H](Cc2ccc(C(F)(F)F)cc2)C(=O)N(C)CC(=O)N[C@@H](CCc2cc(F)c(C(F)(F)F)c(F)c2)C(=O)N2C[C@H](OCC)C[C@H]2C(=O)NC2(CCC2)C(=O)N(C)[C@@H](C2CCCC2)C(=O)N(C)[C@H](C(=O)N2CCOCC2)CC(=O)N1C [PP0710]	–	4.9	–	–	–	B (a compound having 3 or more and less than 10 is denoted as B)	C (A compound having a KD ratio of 0.1 or more and less than 3 is denoted as C)
C#CCN1CC(=O)N(C)[C@H]2C/C=C\CCN(C2=O)[C@@H](Cc2ccc(C(F)(F)F)cc2)C(=O)N(C)CC(=O)N[C@@H](CCc2cc(F)c(C(F)(F)F)c(F)c2)C(=O)N2C[C@H](OCC)C[C@H]2C(=O)NC2(CC(C)(C)C2)C(=O)N(C)[C@@H](C2CCCC2)C(=O)N(C)[C@H](C(=O)N(C)C)CC(=O)N(C)[C@@H](CC)C(=O)N[C@@H]([C@@H](C)CC)C1=O [PP2087]	–	4.8	–	–	–	A (a compound having 10 or more and less than 20 is denoted as A)	A (a compound having 10 or more and less than 20 is denoted as A)
CCCN1C(=O)CN(C)C(=O)CN(CC)C(=O)[C@H](C2CCCC2)NC(=O)[C@H](CC(C)C)N(C)C(=O)C[C@@H](C(=O)N2CCOCC2)N(C)C(=O)[C@H](C2CCCC2)N(C)C(=O)C2(CCCC2)NC(=O)[C@@H]2CCCN2C(=O)[C@H](CCc2ccc(C(F)(F)F)c(Cl)c2)NC(=O)CN(C)C(=O)[C@@H]1Cc1ccc(C(F)(F)F)cc1 [PP0293] ([NMeL][Gly(cPent)][NEtG][Sar][NPrPhe(4-CF3)][Sar][hPhe(3-Cl-4-CF3)]P[Ac5c][NMeGly(cPent)][NMeD]-Morpholide; lactam N-11)	C (A compound having a KD ratio of 0.1 or more and less than 3 is denoted as C)	37.6	B (a compound having 3 or more and less than 10 is denoted as B)	–	–	–	–
CC[C@H](C)[C@@H]1NC(=O)[C@H](CC(F)F)N(C)C(=O)C[C@@H](C(=O)N(C)C)N(C)C(=O)[C@H](C2CCCC2)N(C)C(=O)C2(CC(C)(C)C2)NC(=O)[C@@H]2CC(F)(F)CN2C(=O)[C@H](CCc2cc(F)c(C(F)(F)F)c(F)c2)NC(=O)CN(C)C(=O)[C@H](Cc2ccc(C(F)(F)F)cc2)N2CC/C=C\C[C@@H](C2=O)N(C)C(=O)CN(C)C1=O [PP1709]	–	3.8	–	A (a compound having 10 or more and less than 20 is denoted as A)	A (a compound having 10 or more and less than 20 is denoted as A)	–	–
CCO[C@@H]1C[C@H]2C(=O)NC3(CC(C)(C)C3)C(=O)N(C)[C@@H](C3CCCC3)C(=O)N(C)[C@H](C(=O)N(C)CC)CC(=O)N(C)[C@@H](CC)C(=O)N[C@@H]([C@@H](C)CC)C(=O)N(C)CC(=O)N(C)[C@H]3C/C=C\CCN(C3=O)[C@@H](Cc3ccc(C)cc3)C(=O)N(C)CC(=O)N[C@@H](CCc3cc(F)c(C(F)(F)F)c(F)c3)C(=O)N2C1 [PP1886]	–	1.9	–	B (a compound having 3 or more and less than 10 is denoted as B)	A (a compound having 10 or more and less than 20 is denoted as A)	–	–
CCCN1C(=O)CN(C)C(=O)CN(C)C(=O)[C@H]([C@@H](C)CC)NC(=O)[C@H](CC(C)C)N(C)C(=O)C[C@@H](C(=O)N2CCOCC2)N(C)C(=O)[C@H](C2CCCC2)N(C)C(=O)C2(CCCC2)NC(=O)[C@@H]2COCCN2C(=O)[C@H](CCc2ccc(C(F)(F)F)c(Cl)c2)NC(=O)CN(C)C(=O)[C@@H]1Cc1ccc(C(F)(F)F)cc1 [PP0265] ([NMeL]I[Sar][Sar][NPrPhe(4-CF3)][Sar][hPhe(3-Cl-4-CF3)][Morpholine(3S-CO)][Ac5c][NMeGly(cPent)][NMeD]-Morpholide; lactam N-11)	C (A compound having a KD ratio of 0.1 or more and less than 3 is denoted as C)	13.3	B (a compound having 3 or more and less than 10 is denoted as B)	–	–	–	–
